Structures can show the parent of a compound that is named as a salt.
Key:
[1] = molecular target: T1, Adrenergic β2 (Homo sapiens, UniProt P07550); assay: Alternative adrenergic β2 mediated cAMP production in H292 cells (AlphaScreen cAMP detection); assay type: cell-based; details: for EC50: cAMP, test compounds incubated 60 minutes at room temperature, 300 μM rolipram, read-out: β2 pEC50 (converted); for β2 Int Act: fraction relative to the maximum activity determined for formoterol, 60 minutes incubation
T1 construct: endogenous in cells; host or cells: H292 cells
T1 sequence (P07550 whole entry): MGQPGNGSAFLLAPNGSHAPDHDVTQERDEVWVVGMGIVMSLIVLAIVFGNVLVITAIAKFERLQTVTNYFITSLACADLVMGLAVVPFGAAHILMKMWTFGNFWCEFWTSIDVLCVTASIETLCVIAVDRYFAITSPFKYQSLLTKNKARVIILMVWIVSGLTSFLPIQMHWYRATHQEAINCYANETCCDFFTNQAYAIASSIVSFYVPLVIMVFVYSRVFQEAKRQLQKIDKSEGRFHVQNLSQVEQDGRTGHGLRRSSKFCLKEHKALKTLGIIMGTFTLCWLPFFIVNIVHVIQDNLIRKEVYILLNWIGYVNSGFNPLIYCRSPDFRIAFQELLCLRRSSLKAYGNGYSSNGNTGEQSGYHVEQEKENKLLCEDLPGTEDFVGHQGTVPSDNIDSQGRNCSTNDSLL
Experimental: Alternative Adrenergic β2 Mediated cAMP Production Cell Preparation
H292 cells were grown in 225 cm2 flasks incubator at 37° C., 5% CO2 in RPMI medium containing, 10% (v/v) FBS (foetal bovine serum) and 2 mM L-glutamine.
Adherent H292 cells were removed from tissue culture flasks by treatment with Accutase™ cell detachment solution for 15 minutes. Flasks were incubated for 15 minutes in a humidified incubator at 37° C., 5% CO2. Detached cells were re-suspended in RPMI media (containing 10% (v/v) FBS and 2 mM L-glutamine) at 0.05×10^6 cells per mL. 5000 cells in 100 μL were added to each well of a tissue-culture-treated 96-well plate and the cells incubated overnight in a humidified incubator at 37° C., 5% CO2. The culture media was removed and cells were washed twice with 100 μL assay buffer and replaced with 50 μL assay buffer (HBSS solution containing 10 mM HEPES pH7.4 and 5 mM glucose). Cells were rested at room temperature for 20 minutes after which time 25 μL of rolipram (1.2 mM made up in assay buffer containing 2.4% (v/v) dimethylsulphoxide) was added. Cells were incubated with rolipram for 10 minutes after which time test compounds were added and the cells were incubated for 60 minutes at room temperature. The final rolipram concentration in the assay was 300 μM and final vehicle concentration was 1.6% (v/v) dimethylsulphoxide. The reaction was stopped by removing supernatants, washing once with 100 μL assay buffer and replacing with 50 μL lysis buffer. The cell monolayer was frozen at −80° C. for 30 minutes (or overnight).
(§1) AlphaScreen™ cAMP Detection
The concentration of cAMP (cyclic adenosine monophosphate) in the cell lysate was determined using AlphaScreen™ methodology. The frozen cell plate was thawed for 20 minutes on a plate shaker then 10 μL of the cell lysate was transferred to a 96-well white plate. 40 μL of mixed AlphaScreen™ detection beads pre-incubated with biotinylated cAMP, was added to each well and the plate incubated at room temperature for 10 hours in the dark. The AlphaScreen™ signal was measured using an EnVision spectrophotometer (Perkin-Elmer Inc.) with the recommended manufacturer's settings. cAMP concentrations were determined by reference to a calibration curve determined in the same experiment using standard cAMP concentrations. Concentration response curves for agonists were constructed and data was fitted to a four parameter logistic equation to determine both the pEC50 and Intrinsic Activity. Intrinsic Activity was expressed as a fraction relative to the maximum activity determined for formoterol in each experiment.

[2] = molecular target: T1, Adrenergic β2; assay: Adrenergic β2 mediated cAMP production in H292 cells (AlphaScreen cAMP detection); assay type: cell-based; details: for EC50: cAMP, test compounds incubated 10 minutes at room temperature, 300 μM rolipram; for Intrinsic Activity: fraction relative to the maximum activity determined for formoterol, 10 minutes incubation
Experimental: Adrenergic β2 Mediated cAMP Production
H292 cells were grown in RPMI (Roswell Park Memorial Institute) medium containing, 10% (v/v) FBS (foetal bovine serum) and 2 mM L-glutamine. Cells were grown in 225 cm2 flasks containing 25 mL media in a humidified incubator at 37° C., 5% CO2. Cells were harvested from the flask and passaged at a 1 in 10 dilution once per week.
The media from flasks containing H292 cells was removed, rinsed with 10 mL PBS (phosphate buffered saline) and replaced with 10 mL Accutase™ cell detachment solution. Flasks were incubated for 15 minutes in a humidified incubator at 37° C., 5% CO2. The cell suspension was counted and the cells re-suspended in RPMI media (containing 10% (v/v) FBS and 2 mM L-glutamine) at 0.05×10^6 cells per mL. 5000 cells in 100 μL were added to each well of a tissue-culture-treated 96-well plate and the cells incubated overnight in a humidified incubator at 37° C., 5% CO2. The culture media was removed, washed twice with 100 μL assay buffer and replaced with 50 μL assay buffer. Cells were rested at room temperature for 20 minutes after which time 25 μL of rolipram (1.2 mM made up in assay buffer containing 2.4% (v/v) dimethylsulphoxide) was added. Cells were incubated with rolipram for 10 minutes after which time test compounds (made up as ×4 concentrated stocks in assay buffer containing 4% (v/v) dimethylsulphoxide) were added and the cells were incubated for 10 minutes at room temperature. Final rolipram concentration in the assay was 300 μM and final vehicle concentration was 1.6% (v/v) dimethylsulphoxide. The reaction was stopped by removing supernatants, washing once with 100 μL assay buffer and replacing with 50 μL lysis buffer. The cell monolayer was frozen at −80° C. for 30 minutes (or overnight).
as §1
The concentration of cAMP (cyclic adenosine monophosphate) in the cell lysate was determined using the AlphaScreen™ methodology. The frozen cell plate was thawed for 20 minutes on a plate shaker then 10 μL of the cell lysate was transferred to a 96-well white plate. 40 μL of mixed AlphaScreen™ detection beads (containing equal volumes of donor beads (pre-incubated with biotinylated cAMP in the dark for 30 minutes) and acceptor beads), was added to each well and the plate incubated at room temperature for 10 hours in the dark. The AlphaScreen™ signal was measured using an EnVision spectrophotometer (Perkin-Elmer Inc.) with the recommended manufacturer's settings. cAMP concentrations were determined by reference to a calibration curve determined in the same experiment using standard cAMP concentrations (made up in lysis buffer in a 96-well tissue-culture-treated plate and frozen/thawed alongside the test samples) and detected using the same protocol. Concentration response curves for agonists were constructed to determine both the pEC50 and Intrinsic Activity. Intrinsic Activity was expressed as a fraction relative to the maximum activity determined for formoterol in each experiment.

SMILES	EC50 [1] [µM]	β2 Int Act [1]	EC50 [2] [µM]	Intrinsic Activity [2]
CCN(CC)CCN(CCNCCc1ccc(O)c2[nH]c(=O)sc12)C(=O)CCOCCc1c(Cl)cccc1Cl [Example 24, 3-[2-(2,6-Dichlorophenyl)ethoxy]-N-(2-diethylaminoethyl)-N-{2-[2-(4-hydroxy-2-oxo-2,3-dihydro-1,3-benzothiazol-7-yl)ethylamino]ethyl}propanamide dihydrobromide]	0.1	0.9		
CN(C)CCN(CCNCCc1ccc(O)c2[nH]c(=O)sc12)C(=O)CCOCCc1ccccc1 [Example 14, N-[2-(Dimethylamino)ethyl]-N-(2-{[2-(4-hydroxy-2-oxo-2,3-dihydro-1,3-benzothiazol-7-yl)ethyl]amino}ethyl)-3-(2-phenylethoxy)propanamide]	0.00794	1		
CC(C)(C)OC(=O)N1CCC(CN(CCNCCc2ccc(O)c3[nH]c(=O)sc23)C(=O)CCOCCc2ccccc2)CC1 [Example 1, tert-Butyl 4-({(2-{[2-(4-hydroxy-2-oxo-2,3-dihydro-1,3-benzothiazol-7-yl)ethyl]amino}ethyl)[3-(2-phenylethoxy)propanoyl]amino}methyl)piperidine-1-carboxylate]			0.0631	0.7
O=c1[nH]c2c(O)ccc(CCNCCN(CCCOCCc3ccccc3)CCc3ccccc3)c2s1 [Example 13, 4-Hydroxy-7-[2-({2-[[3-(2-phenylethoxy)propyl](2-phenylethyl)amino]ethyl}amino)-ethyl]-1,3-benzothiazol-2(3H)-one]	0.0631	0.5		
O=C(CCOCCc1ccccc1)N(CCNCCc1ccc(O)c2[nH]c(=O)sc12)Cc1cccnc1 [Example 5, N-[2-[2-(4-Hydroxy-2-oxo-3H-benzothiazol-7-yl)ethylamino]ethyl]-3-phenethyloxy-N-(3-pyridylmethyl)propanamide]			0.0126	0.8
O=C(CCOCCc1ccc(Br)cc1)N(CCNCCc1ccc(O)c2[nH]c(=O)sc12)CCc1ccccc1 [Example 10, 3-[2-(4-Bromophenyl)ethoxy]-N-[2-[2-(4-hydroxy-2-oxo-3H-benzothiazol-7-yl)ethylamino]ethyl]-N-phenethyl-propanamide]	0.00794	0.7	0.00501	0.6
CCN(CC)CCN(CCNCCc1ccc(O)c2[nH]c(=O)sc12)C(=O)CCOCCc1cccc(C(F)(F)F)c1 [Example 25, N-(2-Diethylaminoethyl)-N-{2-[2-(4-hydroxy-2-oxo-2,3-dihydro-1,3-benzothiazol-7-yl)ethylamino]ethyl}-3-[2-(3-trifluoromethylphenyl)ethoxy]propanamide dihydrobromide]	0.0631	0.8		
CCN(CC)CCN(CCNCCc1ccc(O)c2[nH]c(=O)sc12)C(=O)CCOCCc1ccccc1 [Example 12, N-[2-(Diethylamino)ethyl]-N-(2-{[2-(4-hydroxy-2-oxo-2,3-dihydro-1,3-benzothiazol-7-yl)ethyl]amino}ethyl)-3-(2-phenylethoxy)propanamide]	0.00794	0.8	0.0158	0.8
O=C(CCOCCc1ccccc1)N(CCCNCCc1ccc(O)c2[nH]c(=O)sc12)CCc1ccccc1 [Example 8, N-(3-{[2-(4-Hydroxy-2-oxo-2,3-dihydro-1,3-benzothiazol-7-yl)ethyl]amino}propyl)-3-(2-phenylethoxy)-N-(2-phenylethyl)propanamide]			0.00126	0.7
CCN(CC)CCN(CCNCCc1ccc(O)c2[nH]c(=O)sc12)C(=O)CCOCCc1cc(OC)ccc1Br [Example 21, 3-[2-(2-Bromo-5-methoxyphenyl)ethoxy]-N-[2-(diethylamino)ethyl]-N-(2-{[2-(4-hydroxy-2-oxo-2,3-dihydro-1,3-benzothiazol-7-yl)ethyl]amino}ethyl)propanamide dihydrobromide]	0.0794	0.6		
CCN(CC)CCN(CCNCCc1ccc(O)c2[nH]c(=O)sc12)C(=O)CCOCCc1ccc(O)cc1 [Example 19, N-[2-(Diethylamino)ethyl]-N-(2-{[2-(4-hydroxy-2-oxo-2,3-dihydro-1,3-benzothiazol-7-yl)ethyl]amino}ethyl)-3-[2-(4-hydroxyphenyl)ethoxy]propanamide ditrifluoroacetate]	0.0126	0.8		
